Five molecules from PubChem BioAssay (NCI) can be followed below.

Among the test systems are LOX IMVI melanoma; DU-145 prostate; MDA-MB-435; RXF 393 renal; NCI-H522 lung; SR leukemia; HCT-15 colon; UACC-62 melanoma; HS 578T breast; MALME-3M melanoma; UACC-257 melanoma; HOP-92 NSCLC.
Test in all cases: NCI tumour cell line growth inhibition, 48 h

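Grown in 96-well plates, cells were treated for 48 hours with each compound at five concentrations. Insufficient inhibition: endpoint recorded as highest concentration tested. The concentration for full growth arrest is given as TGI.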 Bounds are passed on as bounds.

As for `COc1cccc(-c2c(-c3ccccc3)[nH]c(C)c2C(=O)ONC(=O)c2ccccc2)c1`, the TGI in the assay with LOX IMVI melanoma was 3.91 µM; with DU-145 prostate it was 11.8 µM; in the assay on MDA-MB-435, 13.7 µM; with RXF 393 renal, 17.1 µM; in the assay on NCI-H522 lung, 14.2 µM; in the assay with SR leukemia it was 15.5 µM. In addition, the TGI was 26.1 µM in the assay on HCT-15 colon; 26.9 µM in the assay with UACC-62 melanoma; 24 µM with HS 578T breast; 28.4 µM with MALME-3M melanoma; 26.6 µM in the assay with UACC-257 melanoma; 4.65 µM with HOP-92 NSCLC.
On to `Cc1ccc(N2C(N)=C(C#N)C(C#N)(C#N)C2c2ccccc2)cc1` (stereo not given), for which the TGI with LOX IMVI melanoma stood at 23.9 µM; in the assay on DU-145 prostate, 28.2 µM; in the assay on MDA-MB-435 it was 14.1 µM; in the assay on RXF 393 renal, 25.3 µM; in the assay with NCI-H522 lung, 21.5 µM; in the assay on SR leukemia, 33.7 µM. In addition, the TGI worked out at 22.6 µM in the assay with HCT-15 colon; 26.7 µM in the assay with UACC-62 melanoma; 76.7 µM with HS 578T breast; 27.8 µM in the assay with MALME-3M melanoma; 30.4 µM with UACC-257 melanoma; 21.8 µM in the assay on HOP-92 NSCLC.
For `C#CC1NC(=O)C1N(CC)CC` (stereo not given), the TGI in the assay on LOX IMVI melanoma, in the assay with DU-145 prostate, with MDA-MB-435, in the assay on RXF 393 renal, in the assay with NCI-H522 lung and with SR leukemia was greater than 100 µM each time. The TGI in the assay on HCT-15 colon, in the assay on UACC-62 melanoma, in the assay with HS 578T breast, in the assay on MALME-3M melanoma, in the assay on UACC-257 melanoma and in the assay with HOP-92 NSCLC was greater than 100 µM throughout.
Consider `Cc1cccc2c1c(=O)c1c(O)cc(O)cc1n2C`, for which the TGI in the assay on LOX IMVI melanoma, in the assay on DU-145 prostate, in the assay on MDA-MB-435, in the assay on RXF 393 renal, in the assay with NCI-H522 lung and in the assay with SR leukemia was greater than 100 µM each time. Moreover, the TGI with HCT-15 colon, in the assay on UACC-62 melanoma, in the assay with HS 578T breast, in the assay on MALME-3M melanoma, in the assay on UACC-257 melanoma and in the assay on HOP-92 NSCLC was greater than 100 µM throughout.
As for `CCCCc1c2c(c(C)c3c1C(=O)OC3)Oc1ccccc1O2`, the TGI is greater than 100 µM with LOX IMVI melanoma; greater than 43.8 µM in the assay with DU-145 prostate; 1.59 µM in the assay with MDA-MB-435; 7.98 µM with RXF 393 renal; 1.15 µM with NCI-H522 lung; greater than 40.1 µM in the assay on SR leukemia. Further, the TGI was greater than 100 µM in the assay with HCT-15 colon; greater than 100 µM in the assay with UACC-62 melanoma; 5.8 µM in the assay on HS 578T breast; greater than 100 µM in the assay on MALME-3M melanoma; 96.9 µM in the assay with UACC-257 melanoma; greater than 100 µM in the assay with HOP-92 NSCLC.
